Laboratory results: ChEMBL document CHEMBL4411307, “N,N'-diaryl-bishydrazones in a biphenyl platform: Broad spectrum antifungal agents” (Eur J Med Chem, 2019)
Values after ≈ are worked out from the molar mass of the structure shown. Active and inactive are the calls of the source. No cut-off for these calls is given here.

Legend:
[1] = Hemolytic activity in mouse RBC at […] ug/ml after 1 hr relative to control; type: ADME, cell-based, Erythrocyte; settings: red blood cells (erythrocytes), read-out: Activity
[2] = Selectivity index, ratio of CC50 for human A549 cells to MIC for fluconazole/ITC-susceptible Candida albicans ATCC MYA-2310; type: toxicity; settings: read-out: Selectivity Index
[3] = Selectivity index, ratio of CC50 for human A549 cells to MIC for Aspergillus terreus ATCC MYA-3633; type: toxicity; settings: read-out: Selectivity Index
[4] = system: Listeria monocytogenes; assay: Antibacterial activity against Listeria monocytogenes; type: functional, organism-based
[5] = Hemolytic activity in mouse RBC at 7.8 ug/ml after 1 hr relative to control; type: ADME, cell-based, Erythrocyte; settings: red blood cells (erythrocytes), read-out: Activity
[6] = system: Candida parapsilosis; assay: Antifungal activity against Candida parapsilosis ATCC 22019 measured after 48 hrs by CLSI M27-A3 protocol based method; type: functional; settings: Lodderomyces parapsilosis, ATCC 22019, 48 h
[7] = Hemolytic activity in mouse RBC at 62.5 ug/ml after 1 hr relative to control; type: ADME, cell-based, Erythrocyte; settings: red blood cells (erythrocytes), read-out: Activity
[8] = Selectivity index, ratio of CC50 for human A549 cells to MIC for fluconazole/ITC-resistant Candida albicans ATCC 64124; type: toxicity; settings: read-out: Selectivity Index
[9] = Selectivity index, ratio of CC50 for human A549 cells to MIC for Candida krusei ATCC 6258; type: toxicity; settings: read-out: Selectivity Index
[10] = Hemolytic activity in mouse RBC at 1.95 ug/ml after 1 hr relative to control; type: ADME, cell-based, Erythrocyte; settings: red blood cells (erythrocytes), read-out: Activity
[11] = Hemolytic activity in mouse RBC at 3.9 ug/ml after 1 hr relative to control; type: ADME, cell-based, Erythrocyte; settings: red blood cells (erythrocytes), read-out: Activity
[12] = system: A549; assay: Cytotoxicity against human A549 cells after 24 hrs by resazurin based assay; type: cell-based; settings: a549, 24 h
[13] = system: Candida albicans; assay: Antifungal activity against fluconazole/ITC-resistant Candida albicans ATCC 64124 measured after 48 hrs by CLSI M27-A3 protocol based method; type: functional; settings: ATCC 64124, 48 h
[14] = system: Aspergillus flavus; assay: Antifungal activity against Aspergillus flavus ATCC MYA-3631 measured after 48 hrs by CLSI M38-A2 protocol based method; type: functional; settings: ATCC MYA-3631, 48 h
[15] = system: Nakaseomyces glabratus; assay: Antifungal activity against Candida glabrata ATCC 2001 measured after 48 hrs by CLSI M27-A3 protocol based method; type: functional; settings: CBS 138, 48 h
[16] = system: Candida albicans; assay: Antifungal activity against fluconazole/ITC-resistant Candida albicans ATCC MYA-1003 measured after 48 hrs by CLSI M27-A3 protocol based method; type: functional; settings: ATCC MYA-1003, 48 h
[17] = Selectivity index, ratio of CC50 for human A549 cells to MIC for Aspergillus nidulans ATCC 38163; type: toxicity; settings: read-out: Selectivity Index
[18] = system: Aspergillus terreus; assay: Antifungal activity against Aspergillus terreus ATCC MYA-3633 measured after 48 hrs by CLSI M38-A2 protocol based method; type: functional; settings: ATCC MYA-3633, 48 h
[19] = system: Enterococcus; assay: Antibacterial activity against vancomycin-resistant Enterococcus; type: functional, organism-based
[20] = system: Candida albicans; assay: Antifungal activity against fluconazole/ITC-resistant Candida albicans ATCC 10231 measured after 48 hrs by CLSI M27-A3 protocol based method; type: functional; settings: ATCC 10231, 48 h
[21] = system: Pichia kudriavzevii; assay: Antifungal activity against Candida krusei ATCC 6258 measured after 48 hrs by CLSI M27-A3 protocol based method; type: functional; settings: ATCC 6258, 48 h
[22] = Hemolytic activity in mouse RBC at […] after 1 hr relative to control; type: ADME, cell-based, Erythrocyte; settings: red blood cells (erythrocytes), read-out: Activity; note: tested at 0.48 µg/mL
[23] = Selectivity index, ratio of CC50 for human A549 cells to MIC for fluconazole/ITC-resistant Candida albicans ATCC MYA-1237; type: toxicity; settings: read-out: Selectivity Index
[24] = Selectivity index, ratio of CC50 for human A549 cells to MIC for Candida parapsilosis ATCC 22019; type: toxicity; settings: read-out: Selectivity Index
[25] = system: Candida albicans; assay: Antifungal activity against fluconazole/ITC-susceptible Candida albicans ATCC MYA-2310 measured after 48 hrs by CLSI M27-A3 protocol based method; type: functional; settings: ATCC MYA-2310, 48 h
[26] = system: Candida albicans; assay: Antifungal activity against fluconazole/ITC-resistant Candida albicans ATCC 90819 measured after 48 hrs by CLSI M27-A3 protocol based method; type: functional; settings: ATCC 90819, 48 h
[27] = Selectivity index, ratio of CC50 for human A549 cells to MIC for fluconazole/ITC-susceptible Candida albicans ATCC MYA-2876; type: toxicity; settings: read-out: Selectivity Index
[28] = Selectivity index, ratio of CC50 for human A549 cells to MIC for fluconazole/ITC-resistant Candida albicans ATCC MYA-1003; type: toxicity; settings: read-out: Selectivity Index
[29] = Selectivity index, ratio of CC50 for human A549 cells to MIC for Candida glabrata ATCC 2001; type: toxicity; settings: read-out: Selectivity Index
[30] = system: Staphylococcus aureus; assay: Antibacterial activity against methicillin-resistant Staphylococcus aureus; type: functional, organism-based
[31] = Hemolytic activity in mouse RBC at 31.3 ug/ml after 1 hr relative to control; type: ADME, cell-based, Erythrocyte; settings: red blood cells (erythrocytes), read-out: Activity
[32] = system: Candida albicans; assay: Antifungal activity against fluconazole/ITC-susceptible Candida albicans ATCC MYA-2876 measured after 48 hrs by CLSI M27-A3 protocol based method; type: functional; settings: ATCC MYA-2876, 48 h
[33] = system: BEAS-2B; assay: Cytotoxicity against human BEAS2B cells after 24 hrs by resazurin based assay; type: cell-based
[34] = system: Aspergillus nidulans; assay: Antifungal activity against Aspergillus nidulans ATCC 38163 measured after 48 hrs by CLSI M38-A2 protocol based method; type: functional; settings: ATCC 38163, 48 h
[35] = system: Candida albicans; assay: Antifungal activity against fluconazole/ITC-resistant Candida albicans ATCC MYA-1237 measured after 48 hrs by CLSI M27-A3 protocol based method; type: functional; settings: ATCC MYA-1237, 48 h
[36] = Selectivity index, ratio of CC50 for human A549 cells to MIC for fluconazole/ITC-resistant Candida albicans ATCC 90819; type: toxicity; settings: read-out: Selectivity Index
[37] = Selectivity index, ratio of CC50 for human A549 cells to MIC for fluconazole/ITC-resistant Candida albicans ATCC 10231; type: toxicity; settings: read-out: Selectivity Index

Fc1cccc(N/N=C/c2ccc(-c3cccc(/C=N/Nc4cccc(F)c4)c3)cc2)c1
hemolysis at 1 h, 15.6 ug/ml ([1]; at 15.6 µg/mL): 13.9% | hemolysis at 1 h, 0.975 ug/ml [1]: 4.6% | selectivity ratio [2]: 0.4 | selectivity ratio [3]: 0.4 | Activity [4]: inactive | hemolysis at 1 h, 7.8 ug/ml [5]: 7.9% | MIC [6]: 31.3 µg/mL (≈ 73.4 µM) | hemolysis at 1 h, 62.5 ug/ml [7]: 39.5% | selectivity ratio [8]: 0.4 | selectivity ratio [9]: 6 | hemolysis at 1 h, 1.95 ug/ml [10]: 0.6% | hemolysis at 1 h, 3.9 ug/ml [11]: 2.5% | CC50 [12]: 11.7 µg/mL (≈ 27.4 µM) | MIC [13]: > 31.3 µg/mL | MIC [14]: 3.9 µg/mL (≈ 9.14 µM) | MIC [15]: > 31.3 µg/mL | MIC [16]: 7.8 µg/mL (≈ 18.3 µM) | selectivity ratio [17]: 1.5 | MIC [18]: > 31.3 µg/mL | Activity [19]: inactive | MIC [20]: 1.95 µg/mL (≈ 4.57 µM) | MIC [21]: 1.95 µg/mL (≈ 4.57 µM) | hemolysis at 1 h, […] [22]: 0% | selectivity ratio [23]: 0.8 | selectivity ratio [24]: 0.4 | MIC [25]: > 31.3 µg/mL | MIC [26]: 15.6 µg/mL (≈ 36.6 µM) | selectivity ratio [27]: 1.5 | selectivity ratio [28]: 1.5 | selectivity ratio [29]: 0.4 | Activity [30]: inactive | hemolysis at 1 h, 31.3 ug/ml [31]: 32.6% | MIC [32]: 7.8 µg/mL (≈ 18.3 µM) | CC50 [33]: 11.8 µg/mL (≈ 27.7 µM) | MIC [34]: 7.8 µg/mL (≈ 18.3 µM) | MIC [35]: 15.6 µg/mL (≈ 36.6 µM) | selectivity ratio [36]: 0.8 | selectivity ratio [37]: 6
